Results reported in patent US10294202B2, “Pyrrolidinones as herbicides” (FMC Corporation, priority 2013, dated 2019).

Legend:
[1] = test system: blackgrass; assay: Test A postemergence herbicide test; format: in vivo, Alopecurus myosuroides
Method in brief: (§1)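 Injury was rated visually about 10 days after treatment on a 0 (no effect) to 100 (complete control) scale, compared with untreated plants. Test chemicals were sprayed postemergence onto greenhouse plants 2–10 cm high at one to two leaves, grown in a loam–sand blend.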

[2] = test system: kochia; assay: Test A pre-/postemergence herbicide test; format: in vivo, Kochia scoparia
Method in brief: (§2)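 Seeds sown in loam soil/sand blend received a preemergence directed soil spray of test chemical in non-phytotoxic solvent with surfactant; postemergence plants (2–10 cm, one- to two-leaf stage) were sprayed with the same formulation. After about 10 days in greenhouse, injury was rated visually versus untreated controls, 0 (no effect) to 100 (complete control).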

[3] = test system: pigweed; assay: Test A pre-/postemergence herbicide test; format: in vivo, Amaranthus retroflexus
Method in brief: as §2

[4] = test system: galium; assay: Test A postemergence herbicide test; format: in vivo, Galium aparine
Method in brief: as §1

[5] = test system: barnyardgrass; assay: Test B flooded paddy test; format: in vivo, Echinochloa crus-galli; details: Flood, scale of 0 to 100 where 0 is no effect and 100 is complete control
Method in brief: (§3)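 Scoring: visual, compared with untreated controls, 0 = no effect through 100 = complete control, taken 13 to 15 days after treatment in the greenhouse. Compounds had been added to paddy water over soil flooded 3 cm deep at the plants' 2-leaf stage.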

[6] = test system: barnyardgrass; assay: Test A pre-/postemergence herbicide test; format: in vivo, Echinochloa crus-galli
Method in brief: as §2

[7] = test system: ryegrass, Italian; assay: Test A pre-/postemergence herbicide test; format: in vivo, Lolium multiflorum
Method in brief: as §2

[8] = test system: wheat; assay: Test A pre-/postemergence herbicide test; format: in vivo, Triticum aestivum; details: Postemergence
Method in brief: as §2

[9] = test system: rice; assay: Test B flooded paddy test; format: in vivo, Oryza sativa; details: Flood, scale of 0 to 100 where 0 is no effect and 100 is complete control
Method in brief: as §3

[10] = test system: corn; assay: Test A pre-/postemergence herbicide test; format: in vivo, Zea mays; details: Postemergence
Method in brief: as §2

[11] = test system: giant foxtail; assay: Test A pre-/postemergence herbicide test; format: in vivo, Setaria faberii
Method in brief: as §2

[12] = test system: ragweed; assay: Test A pre-/postemergence herbicide test; format: in vivo, Ambrosia elatior
Method in brief: as §2

[13] = test system: sedge, umbrella; assay: Test B flooded paddy test; format: in vivo, Cyperus difformis; details: Flood, scale of 0 to 100 where 0 is no effect and 100 is complete control
Method in brief: as §3

[14] = test system: ducksalad; assay: Test B flooded paddy test; format: in vivo, Heteranthera limosa; details: Flood, scale of 0 to 100 where 0 is no effect and 100 is complete control
Method in brief: as §3

[15] = 125 g ai/ha, 0 to 100 scale, 0 is no effect, 100 is complete control
[16] = 125 g ai/ha, visual rating, 0 to 100 scale, 0 no effect, 100 complete control, approximately 10 days, preemergence
[17] = Postemergence, 125 g ai/ha, 0 to 100 scale, 0 is no effect, 100 is complete control
[18] = preemergence, 500 g ai/ha, 0 to 100 scale, 0 is no effect and 100 is complete control
[19] = 500 g ai/ha, 0 to 100 scale (0 no effect, 100 complete control)
[20] = Postemergence, 500 g ai/ha, 0 to 100 scale (0 no effect, 100 complete control)

Compound	Plant response rating, Blackgrass [1, 15]	Plant response rating, Kochia [2, 16]	Plant response rating, Kochia [2, 17]	Plant response rating, Kochia [2, 18]	Plant response rating, Pigweed [3, 16]	Plant response rating, Pigweed [3, 17]	Plant response rating, Pigweed [3, 18]	Plant response rating, Galium [4, 15]	Plant response rating, Barnyardgrass ([5]; 1000 g ai/ha)	Plant response rating, Barnyardgrass [6, 16]	Plant response rating, Barnyardgrass [6, 17]	Plant response rating, Barnyardgrass [6, 18]	Plant response rating, Ryegrass, Italian [7, 16]	Plant response rating, Ryegrass, Italian [7, 17]	Plant response rating, Ryegrass, Italian [7, 18]	Plant response rating, Wheat [8, 15]	Plant response rating, Rice ([9]; 1000 g ai/ha)	Plant response rating, Corn [10, 15]	Plant response rating, Foxtail, Giant [11, 16]	Plant response rating, Foxtail, Giant [11, 17]	also measured
COc1ccc(C2CNC(=O)C2C(=O)Nc2cccc(F)c2F)cc1C(F)(F)F (stereo not shown) [Compound 234]	0	20	0	50	0	0	20	30	75	60	60	90	30	20	30	0	0	0	70	40	Blackgrass plant response rating (0 to 100 scale, 0 is no effect, 100 is complete control) ([1]; 500 g ai/ha): 30; Kochia plant response rating (0 to 100 scale, 0 is no effect, 100 is complete control) ([2]; Postemergence, 500 g ai/ha): 30; Pigweed plant response rating (0 to 100 scale, 0 is no effect, 100 is complete control) ([3]; Postemergence, 500 g ai/ha): 0; Galium plant response rating (0 to 100 scale, 0 is no effect, 100 is complete control) ([4]; 500 g ai/ha): 50; Barnyardgrass plant response rating (0 to 100 scale, 0 is no effect, 100 is complete control) ([6]; Postemergence, 500 g ai/ha): 90; Ryegrass, Italian plant response rating (0 to 100 scale, 0 is no effect, 100 is complete control) ([7]; Postemergence, 500 g ai/ha): 30; Wheat plant response rating (0 to 100 scale, 0 is no effect, 100 is complete control) ([8]; 500 g ai/ha): 40; Corn plant response rating (0 to 100 scale, 0 is no effect, 100 is complete control) ([10]; 500 g ai/ha): 60; Foxtail, Giant plant response rating (0 to 100 scale, 0 is no effect, 100 is complete control) ([11]; Postemergence, 500 g ai/ha): 80; Plant response rating, Foxtail, Giant [11, 18]: 90; Plant response rating, Ragweed [12, 16]: 0; Plant response rating, Ragweed [12, 17]: 0; Ragweed plant response rating (0 to 100 scale, 0 is no effect, 100 is complete control) ([12]; Postemergence, 500 g ai/ha): 0; Plant response rating, Ragweed [12, 18]: 20; Plant response rating, Sedge, Umbrella ([13]; 1000 g ai/ha): 0; Plant response rating, Ducksalad ([14]; 1000 g ai/ha): 85
O=C1NCC(c2ccc(-c3ccccc3F)cc2)C1C(=O)Nc1cccc(F)c1F (stereo not shown) [Compound 235]	0	0	0	0	0	0	0	50	45	0	10	60	0	0	0	0	0	0	40	10	Blackgrass plant response rating (0 to 100 scale, 0 is no effect, 100 is complete control) ([1]; 500 g ai/ha): 20; Kochia plant response rating (0 to 100 scale, 0 is no effect, 100 is complete control) ([2]; Postemergence, 500 g ai/ha): 20; Pigweed plant response rating (0 to 100 scale, 0 is no effect, 100 is complete control) ([3]; Postemergence, 500 g ai/ha): 50; Galium plant response rating (0 to 100 scale, 0 is no effect, 100 is complete control) ([4]; 500 g ai/ha): 70; Plant response rating, Barnyardgrass ([5]; 250 g ai/ha): 0; Barnyardgrass plant response rating (0 to 100 scale, 0 is no effect, 100 is complete control) ([6]; Postemergence, 500 g ai/ha): 20; Ryegrass, Italian plant response rating (0 to 100 scale, 0 is no effect, 100 is complete control) ([7]; Postemergence, 500 g ai/ha): 0; Wheat plant response rating (0 to 100 scale, 0 is no effect, 100 is complete control) ([8]; 500 g ai/ha): 0; Plant response rating, Rice ([9]; 250 g ai/ha): 0; Corn plant response rating (0 to 100 scale, 0 is no effect, 100 is complete control) ([10]; 500 g ai/ha): 20; Foxtail, Giant plant response rating (0 to 100 scale, 0 is no effect, 100 is complete control) ([11]; Postemergence, 500 g ai/ha): 50; Plant response rating, Foxtail, Giant [11, 18]: 80; Plant response rating, Ragweed [12, 16]: 0; Plant response rating, Ragweed [12, 17]: 0; Ragweed plant response rating (0 to 100 scale, 0 is no effect, 100 is complete control) ([12]; Postemergence, 500 g ai/ha): 0; Plant response rating, Ragweed [12, 18]: 0; Plant response rating, Sedge, Umbrella ([13]; 250 g ai/ha): 0; Plant response rating, Sedge, Umbrella ([13]; 1000 g ai/ha): 0; Plant response rating, Ducksalad ([14]; 250 g ai/ha): 0; Plant response rating, Ducksalad ([14]; 1000 g ai/ha): 50
O=C1NCC(c2ccc(-c3ccccc3C(F)(F)F)cc2)C1C(=O)Nc1cccc(F)c1F (stereo not shown) [Compound 236]	0	0	0	0	0	0	0	0	40	0	0	0	0	0	50	0	0	0	0	0	Blackgrass plant response rating (0 to 100 scale, 0 is no effect, 100 is complete control) ([1]; 500 g ai/ha): 0; Kochia plant response rating (0 to 100 scale, 0 is no effect, 100 is complete control) ([2]; Postemergence, 500 g ai/ha): 0; Pigweed plant response rating (0 to 100 scale, 0 is no effect, 100 is complete control) ([3]; Postemergence, 500 g ai/ha): 0; Galium plant response rating (0 to 100 scale, 0 is no effect, 100 is complete control) ([4]; 500 g ai/ha): 0; Barnyardgrass plant response rating (0 to 100 scale, 0 is no effect, 100 is complete control) ([6]; Postemergence, 500 g ai/ha): 0; Ryegrass, Italian plant response rating (0 to 100 scale, 0 is no effect, 100 is complete control) ([7]; Postemergence, 500 g ai/ha): 0; Wheat plant response rating (0 to 100 scale, 0 is no effect, 100 is complete control) ([8]; 500 g ai/ha): 0; Corn plant response rating (0 to 100 scale, 0 is no effect, 100 is complete control) ([10]; 500 g ai/ha): 0; Foxtail, Giant plant response rating (0 to 100 scale, 0 is no effect, 100 is complete control) ([11]; Postemergence, 500 g ai/ha): 0; Plant response rating, Foxtail, Giant [11, 18]: 0; Plant response rating, Ragweed [12, 16]: 0; Plant response rating, Ragweed [12, 17]: 0; Ragweed plant response rating (0 to 100 scale, 0 is no effect, 100 is complete control) ([12]; Postemergence, 500 g ai/ha): 0; Plant response rating, Ragweed [12, 18]: 30; Plant response rating, Sedge, Umbrella ([13]; 1000 g ai/ha): 0; Plant response rating, Ducksalad ([14]; 1000 g ai/ha): 70
COc1ccc(C2CNC(=O)C2C(=O)Nc2ccccc2C(F)(F)F)cc1C(F)(F)F (stereo not shown) [Compound 240]	0	0	0	0	0	0	0	0	70	20	30	50	0	0	0	0	0	0	70	40	Plant response rating, Blackgrass [1, 19]: 0; Plant response rating, Kochia [2, 20]: 0; Plant response rating, Pigweed [3, 20]: 0; Plant response rating, Galium [4, 19]: 0; Plant response rating, Barnyardgrass [6, 20]: 90; Plant response rating, Ryegrass, Italian [7, 20]: 0; Plant response rating, Wheat [8, 19]: 20; Plant response rating, Corn [10, 19]: 20; Plant response rating, Foxtail, Giant [11, 20]: 80; Plant response rating, Foxtail, Giant [11, 18]: 90; Plant response rating, Ragweed [12, 16]: 0; Plant response rating, Ragweed [12, 17]: 0; Plant response rating, Ragweed [12, 20]: 0; Plant response rating, Ragweed [12, 18]: 0; Plant response rating, Sedge, Umbrella ([13]; 1000 g ai/ha): 0; Plant response rating, Ducksalad ([14]; 1000 g ai/ha): 85
